{"source": "patent US4228162A", "about": "(priority 1979, dated 1980)", "key": {"[1]": {"experimental": "The samples were prepared using USP grade aspirin, which was dried at 110° before use. […] Spectrum b was taken after the sample (containing 10% water) was stored at 70° C. for 96 hours."}, "[2]": {"assay": "Solubility of aspirin in propylene glycol, polyethylene glycol-400 and dimethyl isosorbide", "format": "physicochemical", "details": "organic solvent or mixture", "experimental": "The bottle was constantly shaken at room temperature for 24 hours. The solution was then filtered for analysis. The determination of aspirin contents in the solubility samples was carried out using a fluorometric technique, in which the aspirin was completely hydrolyzed into salicylic acid, and the fluorescence of salicylic acid was then measured. The concentration of salicylic acid in the samples was determined based on a fluorescence calibration curve of known concentrations of salicylic acid in the range of 5×10^-7 M to 5×10^-6 M. The concentration of salicylic acid so determined was then converted to the concentration of aspirin. The solubility of aspirin in various solvents is expressed in mg/ml. The samples were treated as follows: […] After 30 minutes, when the hydrolysis was complete, 0.5 ml of a 1 N HCl was added to the flask to neutralize the excess sodium hydroxide. The solution was then diluted with a pH 7 phosphate buffer to 25 ml. For fluorescence measurement, 1, 2, 3, and 4 μl of the diluted solution were transferred into different fluorescence cuvettes containing 2 ml of pH 7 buffer. The fluorescence measured from these solutions was then used to determine the aspirin content in the solvents."}, "[3]": {"assay": "Hydrolysis (stability) studies of aspirin formulations in dimethyl isosorbide", "format": "physicochemical", "experimental": "No attempt of drying of the drug or the solvent was made prior to the experiment. 25 ml of each of the six formulations were placed in a screw capped bottle which was then kept in a temperature controlled water bath set at a designated temperature. Samples of each of the formulations were pipetted out at selected time intervals, and were immediately analyzed for salicylic acid content. The analysis of salicylic acid was carried out using the fluorometric method previously described. The samples were diluted 1000 times in a volumetric flask, a few μl's of the diluted samples were then transferred into a fluorescence cuvette containing 2 ml of pH 7 buffer for the fluorescence measurement. The hydrolysis studies were carried out at 40, 45, 50, 60 and 70° C. and at room temperature.\nThe rate constant of aspirin hydrolysis was determined according to the following equation: […]\nwhere Co is the initial concentration of aspirin, C, the concentration of aspirin at time t, and k, the rate constant. For practical purposes, the above equation may be converted to […]"}, "[4]": {"assay": "Arrhenius prediction of aspirin degradation and shelf life", "format": "physicochemical", "details": "1.00 M aspirin in dimethyl isosorbide", "experimental": "The rate constants determined at various temperatures were used to predict the aspirin degradation at room (25° C.) and refrigeration (5° C.) temperatures using the Arrhenius equation:\nlog k=log A-Ea /2.303RT (3)\nwhere k is the rate constant at temperature T,A, a constant, R, the gas constant, and Ea, the activation energy of the reaction. A plot of log k versus 1/T should yield a straight line with the slope equal to -Ea /2.303R. For the same reaction, Ea is a constant. From the plot, the rate constants at 25° and 5° can also be calculated. These constants can then be used for the prediction of the shelf life (time for 10% degradation) of the aspirin formulations at room and refrigeration temperatures.\nFrom these values, the shelf-life (time for 10% degradation) of formulation A were predicted to be 230 days at 25° C., and 62.5 months at 5° C."}, "[5]": {"format": "physicochemical", "details": "dimethyl isosorbide versus propylene glycol and polyethylene glycol-400", "description": "Ideally, an anhydrous composition is used to prevent hydrolysis."}, "[6]": {"details": "cited from earlier work"}, "gastrointestinal tract": {"system": "gastrointestinal tract", "details": "cited from earlier work"}, "[7]": {"details": "cited from earlier work", "remark": "listed apart in the source"}}, "note": "Like-named read-outs stand apart in the source and are kept apart here.", "data": [{"compound": "CC(=O)Oc1ccccc1C(=O)O", "note": "[Aspirin, acetylsalicylic acid]", "values": [{"measurement": "aspirin degradation by nmr", "setting": "[1]; 1 M aspirin in dimethyl isosorbide with 10% (v/v) water, 70° C., 96 hours", "value": "partially hydrolyzed into salicylic acid and acetic acid"}, {"measurement": "nmr spectral change", "setting": "[1]; 1 M aspirin in dimethyl isosorbide, no water, heated at 70° for 24 hours", "value": "no detectable change was found in the nmr spectrum"}, {"measurement": "solubility at 24 h", "setting": "[2]; dimethyl isosorbide", "value": 280, "unit": "mg/mL"}, {"measurement": "solubility at 24 h", "setting": "[2]; in polyethylene glycol-400, room temperature, 24 hours", "value": 254, "unit": "mg/mL"}, {"measurement": "solubility at 24 h", "setting": "[2]; in propylene glycol, room temperature, 24 hours", "value": 160, "unit": "mg/mL"}, {"measurement": "cause of aspirin degradation (nmr)", "setting": "[3]", "value": "hydrolysis is the only cause for aspirin degradation in dimethyl isosorbide"}, {"measurement": "kinetic order of aspirin hydrolysis", "setting": "[3]; 50° C., FIG. 3", "value": "follows second order kinetics"}, {"measurement": "Time for 10% Degradation", "setting": "[4]; 5° C.", "value": 62.5, "unit": "mos."}, {"measurement": "Time for 10% Degradation", "setting": "[4]; 25° C.", "value": 230, "unit": "days"}, {"measurement": "aspirin stability compared between solvents", "setting": "[5]", "value": "more stable in dimethyl isosorbide than in the other solvents"}, {"measurement": "Time for 10% Degradation", "setting": "[6]; 5° C., 0.36 M aspirin in polyethylene glycol-400", "value": 2.90, "unit": "mos."}, {"measurement": "Time for 10% Degradation", "setting": "[6]; 5° C., 0.36 M aspirin in propylene glycol", "value": 55.8, "unit": "mos."}, {"measurement": "Time for 10% Degradation", "setting": "[6]; 25° C., 0.36 M aspirin in polyethylene glycol-400", "value": 18.8, "unit": "days"}, {"measurement": "Time for 10% Degradation", "setting": "[6]; 25° C., 0.36 M aspirin in propylene glycol", "value": 151.2, "unit": "days"}, {"measurement": "gastrointestinal bleeding", "setting": "gastrointestinal tract; aspirin ingestion, users and patients with gastrointestinal lesions", "value": "severe gastrointestinal bleeding"}, {"measurement": "occult bleeding", "setting": "gastrointestinal tract; orally in a liquid form or intravenously", "value": "produces no occult bleeding"}, {"measurement": "mode of decomposition in polyhydric alcohols (nmr)", "setting": "[7]; apparently anhydrous polyhydric alcohols", "value": "occurs by transesterification of the acid with the polyhydric alcohol as well as by hydrolysis due to the presence of water"}, {"measurement": "hydrolysis kinetics", "setting": "[7]; aqueous, Edward", "value": "follows first order kinetics and is subject to acid and base catalysis"}, {"measurement": "trans-esterification", "setting": "[7]; polyethylene glycol-400, prolonged storage, Jun et al", "value": "undergoes trans-esterification with polyethylene glycol-400 to form salicylic acid and acetylated polyethylene glycol"}]}]}
